Type in all cases: biochemical
One assay has as its target T1, TEC (Homo sapiens, UniProt P42680).
T1 sequence (P42680 1-631): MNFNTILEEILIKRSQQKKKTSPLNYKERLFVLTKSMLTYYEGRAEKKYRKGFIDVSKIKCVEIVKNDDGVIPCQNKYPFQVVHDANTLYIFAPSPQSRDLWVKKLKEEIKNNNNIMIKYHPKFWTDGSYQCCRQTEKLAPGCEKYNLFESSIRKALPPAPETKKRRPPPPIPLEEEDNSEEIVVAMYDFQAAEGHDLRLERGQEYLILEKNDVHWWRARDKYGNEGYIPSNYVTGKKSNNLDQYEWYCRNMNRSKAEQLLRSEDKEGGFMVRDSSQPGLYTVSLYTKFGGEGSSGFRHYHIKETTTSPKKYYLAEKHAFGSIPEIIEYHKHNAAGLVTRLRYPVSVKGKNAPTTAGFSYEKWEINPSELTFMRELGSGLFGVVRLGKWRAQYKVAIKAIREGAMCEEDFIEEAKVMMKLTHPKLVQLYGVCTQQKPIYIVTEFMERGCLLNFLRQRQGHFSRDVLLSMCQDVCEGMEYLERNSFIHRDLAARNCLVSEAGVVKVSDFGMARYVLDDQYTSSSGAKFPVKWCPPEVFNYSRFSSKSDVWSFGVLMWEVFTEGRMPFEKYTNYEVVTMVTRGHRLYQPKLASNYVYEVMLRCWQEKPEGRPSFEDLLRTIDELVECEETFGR
The assay can be described thus: Inhibition of a panel of kinases, in vitro HotSpot kinase assay: TEC. To be noted: D-compounds panel data; 1 μM ATP. On the procedure:
(§1) The degree of inhibition of a panel of kinases is determined using the in vitro HotSpot kinase assay (purified enzymes, ^33P-ATP, an appropriate substrate and 1 μM ATP).

In a further assay the target is T2, JAK3 (Homo sapiens, UniProt P52333).
T2 sequence (P52333 1-1124): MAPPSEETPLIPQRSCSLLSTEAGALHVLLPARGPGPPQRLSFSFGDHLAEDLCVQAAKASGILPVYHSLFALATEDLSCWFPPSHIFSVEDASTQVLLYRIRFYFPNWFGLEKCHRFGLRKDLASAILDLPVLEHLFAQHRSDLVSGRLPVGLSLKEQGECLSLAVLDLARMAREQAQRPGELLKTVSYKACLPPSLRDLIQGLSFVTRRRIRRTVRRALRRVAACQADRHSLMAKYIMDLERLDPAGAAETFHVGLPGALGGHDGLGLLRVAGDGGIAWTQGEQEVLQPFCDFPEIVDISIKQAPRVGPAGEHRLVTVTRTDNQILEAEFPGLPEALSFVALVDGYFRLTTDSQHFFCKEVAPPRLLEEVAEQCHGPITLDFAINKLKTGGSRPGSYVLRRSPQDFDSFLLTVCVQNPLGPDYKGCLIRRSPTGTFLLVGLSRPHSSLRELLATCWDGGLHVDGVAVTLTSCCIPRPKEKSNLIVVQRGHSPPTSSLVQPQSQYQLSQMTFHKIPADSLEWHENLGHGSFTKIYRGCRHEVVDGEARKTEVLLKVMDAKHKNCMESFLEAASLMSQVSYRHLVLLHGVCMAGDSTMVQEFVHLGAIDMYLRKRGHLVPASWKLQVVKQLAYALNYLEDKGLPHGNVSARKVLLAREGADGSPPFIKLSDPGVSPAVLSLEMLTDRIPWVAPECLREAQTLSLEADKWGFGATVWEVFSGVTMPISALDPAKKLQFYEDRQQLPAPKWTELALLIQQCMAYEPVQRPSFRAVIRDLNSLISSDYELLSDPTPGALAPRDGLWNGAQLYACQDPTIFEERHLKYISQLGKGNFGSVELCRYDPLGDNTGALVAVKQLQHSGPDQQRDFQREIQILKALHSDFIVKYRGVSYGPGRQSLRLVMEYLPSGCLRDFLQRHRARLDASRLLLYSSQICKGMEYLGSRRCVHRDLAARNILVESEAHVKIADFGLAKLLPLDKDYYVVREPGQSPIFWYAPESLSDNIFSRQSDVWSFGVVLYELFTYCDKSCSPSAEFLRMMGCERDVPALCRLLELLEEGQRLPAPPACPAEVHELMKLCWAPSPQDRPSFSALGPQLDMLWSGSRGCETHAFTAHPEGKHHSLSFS
The assay can be described thus: Inhibition of a panel of kinases, in vitro HotSpot kinase assay: JAK3. To be noted: D-compounds panel data; 1 μM ATP; read-out: IC50 JAK3.

A further assay addresses T3, ITK (Homo sapiens, UniProt Q08881).
T3 sequence (Q08881 1-620): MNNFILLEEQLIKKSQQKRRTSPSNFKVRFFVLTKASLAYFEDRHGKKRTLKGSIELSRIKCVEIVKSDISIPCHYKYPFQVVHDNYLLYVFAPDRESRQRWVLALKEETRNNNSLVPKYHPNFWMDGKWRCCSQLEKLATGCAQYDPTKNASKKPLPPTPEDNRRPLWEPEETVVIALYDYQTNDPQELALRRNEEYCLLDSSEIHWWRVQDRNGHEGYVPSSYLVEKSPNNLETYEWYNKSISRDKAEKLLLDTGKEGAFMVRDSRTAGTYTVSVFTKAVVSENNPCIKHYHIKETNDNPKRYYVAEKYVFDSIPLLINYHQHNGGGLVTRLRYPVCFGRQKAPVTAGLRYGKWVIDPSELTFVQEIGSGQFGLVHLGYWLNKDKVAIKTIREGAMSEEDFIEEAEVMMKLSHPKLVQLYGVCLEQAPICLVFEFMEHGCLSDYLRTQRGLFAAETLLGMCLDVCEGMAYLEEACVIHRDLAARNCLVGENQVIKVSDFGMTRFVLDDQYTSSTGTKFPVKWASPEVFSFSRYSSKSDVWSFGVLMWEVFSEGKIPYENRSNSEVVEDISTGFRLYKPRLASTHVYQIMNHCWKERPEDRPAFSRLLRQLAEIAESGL
The assay can be described thus: Inhibition of a panel of kinases, in vitro HotSpot kinase assay: ITK. As to conditions: D-compounds panel data; 1 μM ATP. On the procedure:
as §1

For another assay, the target named is SRC (Homo sapiens, UniProt P12931). The assay can be described thus: Inhibition of a panel of kinases, in vitro HotSpot kinase assay: SRC. As to conditions: D-compounds panel data; 1 μM ATP. On the procedure: as §1
Sequence of SRC (P12931 whole entry): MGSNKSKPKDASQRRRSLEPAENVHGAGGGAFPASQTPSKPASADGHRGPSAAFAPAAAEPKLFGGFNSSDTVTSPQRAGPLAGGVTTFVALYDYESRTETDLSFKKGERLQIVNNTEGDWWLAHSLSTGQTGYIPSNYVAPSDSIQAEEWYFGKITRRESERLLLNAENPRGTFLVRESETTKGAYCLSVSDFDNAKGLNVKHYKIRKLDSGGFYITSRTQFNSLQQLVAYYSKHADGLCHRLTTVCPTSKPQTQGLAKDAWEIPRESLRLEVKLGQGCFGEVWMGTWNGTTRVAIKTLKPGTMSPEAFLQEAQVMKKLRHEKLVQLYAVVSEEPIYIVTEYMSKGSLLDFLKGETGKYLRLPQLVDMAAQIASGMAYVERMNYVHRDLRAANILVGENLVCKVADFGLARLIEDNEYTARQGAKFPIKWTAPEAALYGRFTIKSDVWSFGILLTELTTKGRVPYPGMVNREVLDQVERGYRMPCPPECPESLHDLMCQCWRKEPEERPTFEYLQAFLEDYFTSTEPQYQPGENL
The target in a further assay is EGFR (Homo sapiens, UniProt P00533). The assay can be described thus: Inhibition of a panel of kinases, in vitro HotSpot kinase assay: EGFR. To be noted: D-compounds panel data; 1 μM ATP. How it is done: as §1
Sequence of EGFR (P00533 25-1210): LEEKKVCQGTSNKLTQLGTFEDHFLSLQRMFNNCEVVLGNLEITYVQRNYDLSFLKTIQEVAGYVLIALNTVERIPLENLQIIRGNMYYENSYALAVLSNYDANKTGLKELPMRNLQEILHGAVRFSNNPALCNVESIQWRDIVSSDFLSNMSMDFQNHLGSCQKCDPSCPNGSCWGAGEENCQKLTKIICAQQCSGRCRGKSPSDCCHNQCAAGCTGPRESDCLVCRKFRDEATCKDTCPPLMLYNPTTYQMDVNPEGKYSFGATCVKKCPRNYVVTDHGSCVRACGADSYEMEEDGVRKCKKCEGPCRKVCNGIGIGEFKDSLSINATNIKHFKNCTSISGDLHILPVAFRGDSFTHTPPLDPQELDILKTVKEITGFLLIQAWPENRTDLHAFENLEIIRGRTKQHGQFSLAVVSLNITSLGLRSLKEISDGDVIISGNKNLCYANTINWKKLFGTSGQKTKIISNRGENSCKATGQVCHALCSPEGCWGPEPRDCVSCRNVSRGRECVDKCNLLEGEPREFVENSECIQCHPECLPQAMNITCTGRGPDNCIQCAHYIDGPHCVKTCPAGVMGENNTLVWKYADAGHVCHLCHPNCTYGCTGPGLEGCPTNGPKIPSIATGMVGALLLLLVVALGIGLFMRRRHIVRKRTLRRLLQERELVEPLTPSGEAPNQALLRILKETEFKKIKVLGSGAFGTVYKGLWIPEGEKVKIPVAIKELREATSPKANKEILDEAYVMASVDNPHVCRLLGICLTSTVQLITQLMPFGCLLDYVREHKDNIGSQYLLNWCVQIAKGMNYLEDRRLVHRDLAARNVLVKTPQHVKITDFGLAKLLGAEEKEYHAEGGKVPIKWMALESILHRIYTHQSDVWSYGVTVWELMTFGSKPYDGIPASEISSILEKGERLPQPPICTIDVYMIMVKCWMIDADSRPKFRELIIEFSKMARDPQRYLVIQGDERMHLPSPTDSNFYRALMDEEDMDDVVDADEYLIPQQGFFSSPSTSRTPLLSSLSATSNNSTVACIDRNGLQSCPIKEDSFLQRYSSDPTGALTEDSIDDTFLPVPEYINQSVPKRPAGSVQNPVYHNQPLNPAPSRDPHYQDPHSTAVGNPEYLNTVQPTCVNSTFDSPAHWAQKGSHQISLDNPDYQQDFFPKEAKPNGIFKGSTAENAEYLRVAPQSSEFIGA
The target in the next assay is LCK (Homo sapiens, UniProt P06239). The assay can be described thus: Inhibition of a panel of kinases, in vitro HotSpot kinase assay: LCK. To be noted: D-compounds panel data; 1 μM ATP; read-out: IC50 LCK.
Sequence of LCK (P06239 whole entry): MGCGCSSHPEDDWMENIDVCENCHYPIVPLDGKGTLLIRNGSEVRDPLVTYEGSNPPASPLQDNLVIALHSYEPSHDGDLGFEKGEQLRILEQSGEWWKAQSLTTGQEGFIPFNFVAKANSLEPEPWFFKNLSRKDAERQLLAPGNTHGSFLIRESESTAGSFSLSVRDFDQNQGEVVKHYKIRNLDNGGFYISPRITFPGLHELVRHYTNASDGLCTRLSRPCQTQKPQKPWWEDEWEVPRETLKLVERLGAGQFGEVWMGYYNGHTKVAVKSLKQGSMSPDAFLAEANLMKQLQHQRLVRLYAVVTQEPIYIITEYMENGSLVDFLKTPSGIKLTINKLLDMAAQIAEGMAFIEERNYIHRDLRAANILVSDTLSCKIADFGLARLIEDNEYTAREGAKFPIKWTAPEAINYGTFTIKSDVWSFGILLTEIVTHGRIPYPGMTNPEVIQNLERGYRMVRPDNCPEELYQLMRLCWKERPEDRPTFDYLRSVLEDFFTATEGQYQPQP

The record followed here is US20210070748A1, “INHIBITORS OF BRUTONS TYROSINE KINASE” (Pharmacyclics LLC, priority 2015, published 2021).

One may read the IC50 as the concentration at which inhibition is half-maximal.

In the case of `C[C@@H]1[C@H](NC(=O)c2ccc(C3(O)CC3)cc2)CCCN1c1cnc(C(N)=O)c(Nc2cnn(C)c2)n1` [Example D-235, 5-[(2R,3R)-3-[4-(1-hydroxycyclopropyl)benzamido]-2-methylpiperidin-1-yl]-3-[(1-methyl-1H-pyrazol-4-yl)amino]pyrazine-2-carboxamide], the half-inhibitory concentration (IC50) against TEC is no more than 10 nM; on JAK3 it was 100 to 1000 nM; against ITK, 100 to 1000 nM; on SRC, 10 to 100 nM; at EGFR, 100 to 1000 nM; at LCK, 100 to 1000 nM.
As to `C[C@@H]1[C@H](NC(=O)c2ccc(C(C)(C)C)s2)CCCN1c1cnc(C(N)=O)c(Nc2cnn(C)c2)n1` [Example D-229, 5-[(2R,3R)-3-(5-tert-butylthiophene-2-amido)-2-methylpiperidin-1-yl]-3-[(1-methyl-1H-pyrazol-4-yl)amino]pyrazine-2-carboxamide], the IC50 on TEC was 10 to 100 nM; on JAK3, greater than 10000 nM; at ITK it was 1000 to 10000 nM; at SRC, 100 to 1000 nM; against EGFR it was 1000 to 10000 nM; on LCK, 10 to 100 nM.
As to `C[C@@H]1[C@H](NC(=O)c2ccc(C3CC3)cc2)CCCN1c1cnc(C(N)=O)c(Nc2cnn(CC(C)(C)O)c2)n1` [Example D-215, 5-[(2R,3R)-3-(4-cyclopropylbenzamido)-2-methylpiperidin-1-yl]-3-{[1-(2-hydroxy-2-methylpropyl)-1H-pyrazol-4-yl]amino}pyrazine-2-carboxamide], the concentration for half-maximal inhibition (IC50) against TEC was 100 to 1000 nM; on JAK3 it was greater than 10000 nM; against ITK, 1000 to 10000 nM; against SRC, 100 to 1000 nM; against EGFR, greater than 10000 nM; on LCK it was 1000 to 10000 nM.
As to `C[C@@H]1[C@H](NC(=O)c2ccc(C3CC3)cc2F)CCCN1c1cnc(C(N)=O)c(Nc2cc(CN3CCCCC3)ns2)n1` [Example D-176, 5-[(2R,3R)-3-(4-cyclopropyl-2-fluorobenzamido)-2-methylpiperidin-1-yl]-3-{[3-(piperidin-1-ylmethyl)-1,2-thiazol-5-yl]amino}pyrazine-2-carboxamide], the half-maximal inhibitory concentration (IC50) against TEC was 10 to 100 nM; on JAK3, 100 to 1000 nM; at ITK, 100 to 1000 nM; against SRC it was 10 to 100 nM; on EGFR it was greater than 10000 nM; at LCK, 10 to 100 nM.
Consider `C[C@@H]1[C@H](NC(=O)c2ccc(C(O)(C(F)(F)F)C(F)(F)F)cc2)CCCN1c1cnc(C(N)=O)c(Nc2cnn(C)c2)n1` [Example D-240, 5-[(2R,3R)-3-[4-(1,1,1,3,3,3-hexafluoro-2-hydroxypropan-2-yl)benzamido]-2-methylpiperidin-1-yl]-3-[(1-methyl-1H-pyrazol-4-yl)amino]pyrazine-2-carboxamide], for which the IC50 is 10 to 100 nM against TEC; 1000 to 10000 nM at JAK3; 100 to 1000 nM against ITK; 100 to 1000 nM against SRC; 100 to 1000 nM on EGFR; 100 to 1000 nM at LCK.
Turning to `Cc1cc(Nc2nc(N3CCC[C@@H](c4ncc(-c5ccccc5)[nH]4)C3)cnc2C(N)=O)sn1` [Example D-171, 3-[(3-methyl-1,2-thiazol-5-yl)amino]-5-[(3R)-3-(5-phenyl-1H-imidazol-2-yl)piperidin-1-yl]pyrazine-2-carboxamide], the 50% inhibitory concentration (IC50) against TEC was 100 to 1000 nM; at JAK3, 100 to 1000 nM; on ITK it was greater than 10000 nM; at SRC, 100 to 1000 nM; against EGFR, greater than 10000 nM; at LCK it was 100 to 1000 nM.
As for `CCN(CC)c1ccc(C(=O)N[C@@H]2CCCN(c3cnc(C(N)=O)c(Nc4cnn(C)c4)n3)[C@@H]2C)cc1` [Example D-218, 5-[(2R,3R)-3-[4-(diethylamino)benzamido]-2-methylpiperidin-1-yl]-3-[(1-methyl-1H-pyrazol-4-yl)amino]pyrazine-2-carboxamide], the half-inhibitory concentration (IC50) against TEC is no more than 10 nM; at JAK3, 1000 to 10000 nM; against ITK, 100 to 1000 nM; against SRC it was 10 to 100 nM; on EGFR, 1000 to 10000 nM; on LCK, 100 to 1000 nM.
`Cc1cc(Nc2nc(N3CCC[C@H](c4ncc(-c5ccccc5)[nH]4)C3)cnc2C(N)=O)sn1` [Example D-172, 3-[(3-methyl-1,2-thiazol-5-yl)amino]-5-[(3S)-3-(5-phenyl-1H-imidazol-2-yl)piperidin-1-yl]pyrazine-2-carboxamide]: the half-inhibitory concentration (IC50) against TEC was 100 to 1000 nM; at JAK3, 100 to 1000 nM; against ITK, greater than 10000 nM; against SRC it was 100 to 1000 nM; against EGFR, 10 to 100 nM; on LCK it was 100 to 1000 nM.
Regarding `Cc1cc(Nc2nc(N3CCC[C@@H](c4ncc(-c5ccc(C6CC6)cc5)[nH]4)[C@H]3C)cnc2C(N)=O)sn1` [Example D-186, 5-[(2R,3R)-3-[5-(4-cyclopropylphenyl)-1H-imidazol-2-yl]-2-methylpiperidin-1-yl]-3-[(3-methyl-1,2-thiazol-5-yl)amino]pyrazine-2-carboxamide], the IC50 was 100 to 1000 nM against TEC; 1000 to 10000 nM on JAK3; greater than 10000 nM on ITK; 100 to 1000 nM against SRC; 1000 to 10000 nM against EGFR; 1000 to 10000 nM on LCK.
`C[C@@H]1[C@H](NC(=O)c2ccc(C3CC3)nc2)CCCN1c1cnc(C(N)=O)c(Nc2ccc(N3CCN(C)CC3)cc2)n1` [Example D-203, 5-[(2R,3R)-3-(6-cyclopropylpyridine-3-amido)-2-methylpiperidin-1-yl]-3-{[4-(4-methylpiperazin-1-yl)phenyl]amino}pyrazine-2-carboxamide]: the half-maximal inhibitory concentration (IC50) against TEC is no more than 10 nM; on JAK3 it was 1000 to 10000 nM; against ITK it was 10 to 100 nM; against SRC, 10 to 100 nM; against EGFR, 100 to 1000 nM; on LCK, 10 to 100 nM.
